Measurements: patent US12398132B2, “Derivatives of 4-(imidazo[1,2-a]pyridin-3-yl)-n-(pyridinyl)pyrimidin-2-amine as therapeutic agents” (AUCENTRA THERAPEUTICS PTY LTD, priority 2019, dated 2025)
Read-outs that look alike come from different tables or passages of the source.

Tests used:
CDK4/D1 = CDK4/D1 (Homo sapiens, UniProt P11802); assay: ADP Glo kinase assay, CDK4/D1; type: biochemical; settings: CDK4D1; for remaining activity at 10 µM: compound at 10 μM, read-out: residual enzymatic activity (%) at 10 μM; for remaining activity at 1 µM: compound at 1 μM (values marked *), read-out: residual enzymatic activity (%) at 1 μM*
CDK4/D1, sequence (P11802 whole entry, species assumed): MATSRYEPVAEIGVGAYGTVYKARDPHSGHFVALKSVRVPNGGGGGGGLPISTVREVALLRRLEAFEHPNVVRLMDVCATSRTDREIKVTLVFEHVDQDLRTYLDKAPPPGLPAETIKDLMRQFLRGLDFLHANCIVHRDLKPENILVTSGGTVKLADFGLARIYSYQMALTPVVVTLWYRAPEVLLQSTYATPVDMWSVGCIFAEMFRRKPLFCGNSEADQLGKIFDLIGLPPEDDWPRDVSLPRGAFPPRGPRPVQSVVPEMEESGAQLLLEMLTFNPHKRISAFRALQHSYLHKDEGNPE
CDK4/D1, sequence (P24385 whole entry partner, species assumed): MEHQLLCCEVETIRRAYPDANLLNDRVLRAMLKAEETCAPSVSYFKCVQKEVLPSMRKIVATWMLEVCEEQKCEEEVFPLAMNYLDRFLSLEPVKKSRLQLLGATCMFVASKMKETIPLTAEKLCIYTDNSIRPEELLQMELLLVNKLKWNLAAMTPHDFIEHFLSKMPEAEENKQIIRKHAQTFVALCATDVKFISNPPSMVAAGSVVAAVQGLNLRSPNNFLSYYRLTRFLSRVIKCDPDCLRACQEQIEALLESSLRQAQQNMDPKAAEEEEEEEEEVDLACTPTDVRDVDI

CDK6/D3 = CDK6/D3 (Homo sapiens, UniProt Q00534); assay: ADP Glo kinase assay, CDK6/D3; type: biochemical; settings: CDK6D3; for remaining activity at 10 µM: compound at 10 μM, read-out: residual enzymatic activity (%) at 10 μM; for remaining activity at 1 µM: compound at 1 μM (values marked *), read-out: residual enzymatic activity (%) at 1 μM*
CDK6/D3, sequence (Q00534 whole entry, species assumed): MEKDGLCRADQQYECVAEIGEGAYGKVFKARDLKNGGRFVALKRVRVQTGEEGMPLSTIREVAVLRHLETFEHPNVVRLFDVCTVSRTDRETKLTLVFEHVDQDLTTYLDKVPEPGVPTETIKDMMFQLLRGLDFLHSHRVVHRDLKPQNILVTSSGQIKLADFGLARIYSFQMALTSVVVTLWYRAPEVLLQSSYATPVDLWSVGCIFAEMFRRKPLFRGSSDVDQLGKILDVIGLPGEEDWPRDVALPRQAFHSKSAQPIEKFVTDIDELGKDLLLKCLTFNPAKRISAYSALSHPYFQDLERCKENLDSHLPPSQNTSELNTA
CDK6/D3, sequence (P30281 whole entry partner, species assumed): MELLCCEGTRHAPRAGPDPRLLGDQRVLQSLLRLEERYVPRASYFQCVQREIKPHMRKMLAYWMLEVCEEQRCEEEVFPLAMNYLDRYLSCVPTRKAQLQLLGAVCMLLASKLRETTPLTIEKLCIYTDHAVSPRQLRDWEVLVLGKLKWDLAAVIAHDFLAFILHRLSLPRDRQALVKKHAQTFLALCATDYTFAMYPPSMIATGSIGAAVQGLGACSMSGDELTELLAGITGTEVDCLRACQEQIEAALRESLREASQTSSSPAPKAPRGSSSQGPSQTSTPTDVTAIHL
Description: Inhibition of FLT3(WT), FLT3(ITD) and FLT3(D835Y) and CDKs were determined using ADP Glo Kinase assays (Promega Corporation, Madison, WI, USA). […] Similarly, kinase reaction for CDK4/D1 and CDK6/D3 was performed with reaction buffer (40 nM Tris base pH 7.5, 20 mM MgCl2, 0.4 mM DTT), 0.1 mg/ml BSA and RB-CTF substrate (retinoblastoma protein1 C-terminal fraction). For CDK9/CyclinT1, the kinase reaction was performed with the standard assay buffer and Kinase Dilution Buffer and RBER-IRStide substrate. Half-maximal inhibition (IC50) values were calculated using a 4-parameter logistic non-linear regression model with Graphpad prism (Version 6.0). Apparent inhibition constants (Ki) values were calculated from Km (ATP) and IC50 values for the respective kinases.

CDK9/CyclinT1 = CDK9/CyclinT1 (Homo sapiens, UniProt P50750); assay: ADP Glo kinase assay, CDK9/CyclinT1; type: biochemical; settings: CDK9T1; for remaining activity at 10 µM: compound at 10 μM, read-out: residual enzymatic activity (%) at 10 μM; for remaining activity at 1 µM: compound at 1 μM (values marked *), read-out: residual enzymatic activity (%) at 1 μM*; for Ki: apparent Ki calculated from Km (ATP) and IC50, read-out: CDK inhibition Ki
CDK9/CyclinT1, sequence (P50750 whole entry, species assumed): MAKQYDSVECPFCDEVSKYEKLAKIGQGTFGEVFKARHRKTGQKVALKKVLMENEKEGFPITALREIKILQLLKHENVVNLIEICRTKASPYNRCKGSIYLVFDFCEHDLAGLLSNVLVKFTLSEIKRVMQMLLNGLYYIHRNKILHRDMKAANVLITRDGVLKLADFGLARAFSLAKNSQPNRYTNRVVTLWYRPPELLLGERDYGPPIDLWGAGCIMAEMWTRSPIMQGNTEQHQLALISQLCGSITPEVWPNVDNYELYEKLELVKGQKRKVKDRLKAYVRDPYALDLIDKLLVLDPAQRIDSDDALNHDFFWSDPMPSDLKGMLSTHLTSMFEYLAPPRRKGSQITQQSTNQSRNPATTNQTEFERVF
CDK9/CyclinT1, sequence (O60563 whole entry partner, species assumed): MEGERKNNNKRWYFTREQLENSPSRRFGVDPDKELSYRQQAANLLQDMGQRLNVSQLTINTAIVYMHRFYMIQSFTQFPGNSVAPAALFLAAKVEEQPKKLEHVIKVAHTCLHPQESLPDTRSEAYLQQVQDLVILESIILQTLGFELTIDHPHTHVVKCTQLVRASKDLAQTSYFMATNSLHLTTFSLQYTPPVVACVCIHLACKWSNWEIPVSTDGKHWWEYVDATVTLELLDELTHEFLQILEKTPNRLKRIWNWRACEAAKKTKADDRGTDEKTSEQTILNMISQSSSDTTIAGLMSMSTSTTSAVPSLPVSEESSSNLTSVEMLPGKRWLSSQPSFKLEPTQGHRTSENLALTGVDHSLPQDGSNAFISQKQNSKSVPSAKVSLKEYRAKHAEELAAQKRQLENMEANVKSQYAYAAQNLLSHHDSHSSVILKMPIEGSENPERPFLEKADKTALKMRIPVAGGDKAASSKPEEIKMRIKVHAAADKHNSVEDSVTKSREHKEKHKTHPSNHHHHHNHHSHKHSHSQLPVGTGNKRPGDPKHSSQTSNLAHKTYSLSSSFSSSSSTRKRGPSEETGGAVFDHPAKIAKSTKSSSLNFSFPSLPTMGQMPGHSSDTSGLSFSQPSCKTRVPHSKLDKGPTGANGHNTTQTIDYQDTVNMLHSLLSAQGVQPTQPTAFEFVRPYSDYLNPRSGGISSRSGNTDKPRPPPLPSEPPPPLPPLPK

MV-4-11 = assay: Proliferation assay (resazurin/MTT), MV-4-11; type: cell-based; settings: Homo sapiens, MV4-11, read-out: 72 h Growth inhibition GI50, MV-4-11 cells
U937 = assay: Proliferation assay (resazurin/MTT), U937; type: cell-based; settings: Homo sapiens, U-937, read-out: 72 h Growth inhibition GI50, U937 cells
CDK1B = CDK1B (Homo sapiens, UniProt P06493)
CDK1B, sequence (P06493 whole entry): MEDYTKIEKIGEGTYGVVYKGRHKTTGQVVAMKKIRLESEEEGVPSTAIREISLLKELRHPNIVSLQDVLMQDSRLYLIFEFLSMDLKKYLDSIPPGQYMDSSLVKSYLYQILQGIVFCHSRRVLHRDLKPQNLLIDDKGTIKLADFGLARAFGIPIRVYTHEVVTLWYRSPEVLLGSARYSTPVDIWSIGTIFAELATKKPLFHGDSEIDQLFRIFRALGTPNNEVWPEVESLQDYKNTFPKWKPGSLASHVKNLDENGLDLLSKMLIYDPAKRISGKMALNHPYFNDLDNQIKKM
CDK1B, sequence (P14635 whole entry partner): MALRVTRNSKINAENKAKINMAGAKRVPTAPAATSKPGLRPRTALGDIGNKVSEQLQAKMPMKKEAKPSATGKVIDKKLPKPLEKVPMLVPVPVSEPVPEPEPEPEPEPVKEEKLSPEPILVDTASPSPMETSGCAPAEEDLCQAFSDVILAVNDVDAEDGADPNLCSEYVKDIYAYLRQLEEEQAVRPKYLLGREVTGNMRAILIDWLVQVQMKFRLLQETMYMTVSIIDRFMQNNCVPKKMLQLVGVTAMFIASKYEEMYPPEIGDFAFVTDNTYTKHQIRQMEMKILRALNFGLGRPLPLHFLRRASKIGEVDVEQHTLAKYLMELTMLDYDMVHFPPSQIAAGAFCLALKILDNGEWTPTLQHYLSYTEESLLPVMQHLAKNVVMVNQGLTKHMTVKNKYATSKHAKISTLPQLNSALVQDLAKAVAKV

CDK2E1 = CDK2E1 (Homo sapiens, UniProt P24941); settings: 1 µM
CDK7HMAT1 = CDK7HMAT1 (Homo sapiens, UniProt P50613);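 note: kinase activity measured with an ADP-Glo luminescent kinase assay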
CDK7HMAT1, sequence (P50613 whole entry): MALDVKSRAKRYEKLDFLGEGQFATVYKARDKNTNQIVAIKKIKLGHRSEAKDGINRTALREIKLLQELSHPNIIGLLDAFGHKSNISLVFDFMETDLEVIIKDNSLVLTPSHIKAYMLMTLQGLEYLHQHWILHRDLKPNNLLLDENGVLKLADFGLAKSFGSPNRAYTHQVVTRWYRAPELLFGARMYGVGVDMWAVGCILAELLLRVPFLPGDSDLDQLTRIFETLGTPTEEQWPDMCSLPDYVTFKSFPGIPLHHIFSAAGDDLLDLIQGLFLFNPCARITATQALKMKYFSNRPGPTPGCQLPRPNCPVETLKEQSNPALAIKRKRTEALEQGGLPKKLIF
CDK7HMAT1, sequence (P51946 whole entry partner): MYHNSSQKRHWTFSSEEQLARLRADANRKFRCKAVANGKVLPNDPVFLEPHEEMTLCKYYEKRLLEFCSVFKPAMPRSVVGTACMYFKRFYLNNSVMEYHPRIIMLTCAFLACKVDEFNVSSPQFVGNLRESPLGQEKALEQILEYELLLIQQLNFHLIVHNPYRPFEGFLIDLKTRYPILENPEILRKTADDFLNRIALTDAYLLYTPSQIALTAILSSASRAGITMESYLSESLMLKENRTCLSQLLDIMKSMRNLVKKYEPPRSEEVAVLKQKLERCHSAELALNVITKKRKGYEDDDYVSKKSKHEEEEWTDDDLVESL
CDK7HMAT1, sequence (P51948 whole entry partner): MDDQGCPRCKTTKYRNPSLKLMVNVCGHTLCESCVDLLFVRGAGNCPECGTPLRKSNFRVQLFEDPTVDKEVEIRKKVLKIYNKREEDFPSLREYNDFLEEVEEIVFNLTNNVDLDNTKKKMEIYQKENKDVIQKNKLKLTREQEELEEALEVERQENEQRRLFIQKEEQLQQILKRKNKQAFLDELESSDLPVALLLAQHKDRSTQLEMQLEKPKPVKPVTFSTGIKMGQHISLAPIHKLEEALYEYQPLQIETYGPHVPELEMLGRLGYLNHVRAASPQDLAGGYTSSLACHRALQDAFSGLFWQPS
Description: Inhibition of FLT3(WT), FLT3(ITD) and FLT3(D835Y) and CDKs were determined using ADP Glo Kinase assays (Promega Corporation, Madison, WI, USA). […] The kinase reactions are run for an optimised time period (FLT3-WT: 120 min, FLT3-ITD: 80 min, FLT3-D835Y: 100 min) at room temperature and then the reaction was stopped by adding 5 μL of ADP Glo reagent. […] Positive and negative controls were performed in 0.5% DMSO in the presence and absence of each FLT3 kinase, respectively. […] Half-maximal inhibition (IC50) values were calculated using a 4-parameter logistic non-linear regression model with Graphpad prism (Version 6.0). Apparent inhibition constants (Ki) values were calculated from Km (ATP) and IC50 values for the respective kinases.

Row | SMILES | remaining activity at 10 µM (CDK4/D1) | remaining activity at 10 µM (CDK6/D3) | remaining activity at 10 µM (CDK9/CyclinT1) | GI50 (MV-4-11) | GI50 (U937) | activity (CDK1B; 10 µM) | activity (CDK2E1) | activity (CDK7HMAT1; 10 µM) | remaining activity at 1 µM (CDK4/D1) | remaining activity at 1 µM (CDK6/D3) | remaining activity at 1 µM (CDK9/CyclinT1) | activity (CDK1B; 1 µM) | activity (CDK7HMAT1; 1 µM) | Ki (CDK9/CyclinT1)
1 | COc1ncc(-c2ccc3ncc(-c4ccnc(Nc5ccc(N6CCN(C(C)=O)CC6)cn5)n4)n3c2)cn1 [Cmpd 19, 1-(4-(6-((4-(6-(2-Methoxypyrimidin-5-yl)imidazo[1,2-a]pyridin-3-yl)pyrimidin-2-yl)amino)pyridin-3-yl)piperazin-1-yl)ethan-1-one] | 53% | 65% | 33% | 17 nM | 6710 nM | 96% | 82% | 54% |  |  |  |  |  | 
2 | CC(=O)N1CCN(c2ccc(Nc3nccc(-c4cnc5ccc(Nc6ccccc6)cn45)n3)nc2)CC1 [Cmpd 28, 1-(4-(6-((4-(6-(Phenylamino)imidazo[1,2-a]pyridin-3-yl)pyrimidin-2-yl)amino)pyridin-3-yl)piperazin-1-yl)ethan-1-one] |  |  |  | 6 nM | 1490 nM |  | 86% |  | 77% | 80% | 61% | 98% | 91% | 
3 | CC(=O)N1CCN(c2ccc(Nc3nccc(-c4cnc5ccc(-c6coc7ccccc67)cn45)n3)nc2)CC1 [Cmpd 33, 1-(4-(6-((4-(6-(Benzofuran-3-yl)imidazo[1,2-a]pyridin-3-yl)pyrimidin-2-yl)amino)pyridin-3-yl)piperazin-1-yl)ethan-1-one] |  |  |  | 3 nM | 1860 nM |  | 84% |  | 60% | 79% | 72% | 98% | 88% | 
4 | CC(=O)N1CCN(c2ccc(Nc3ncc(F)c(-c4cnc5ccccn45)n3)nc2)CC1 [Cmpd 29, 1-(4-(6-((5-Fluoro-4-(imidazo[1,2-a]pyridin-3-yl)pyrimidin-2-yl)amino)pyridin-3-yl)piperazin-1-yl)ethan-1-one] |  |  |  | 43 nM | 393 nM |  | 47% |  | 59% | 59% | 36% | 100% | 82% | 
5 | CC(=O)N1CCN(c2ccc(Nc3nccc(-c4cnc5ccc(-c6c[nH]c7ccccc67)cn45)n3)nc2)CC1 [Cmpd 41, 1-(4-(6-((4-(6-(1H-Indol-3-yl)imidazo[1,2-a]pyridin-3-yl)pyrimidin-2-yl)amino)pyridin-3-yl)piperazin-1-yl)ethan-1-one] |  |  |  | 1 nM | 1280 nM |  | 81% |  | 54% | 89% | 42% | 98% | 79% | 
6 | CC(=O)N1CCN(c2ccc(Nc3nccc(-c4cnc5ccc(-c6cn(S(=O)(=O)c7ccccc7)c7ncccc67)cn45)n3)nc2)CC1 [Cmpd 38, 1-(4-(6-((4-(6-(1-(Phenylsulfonyl)-1H-pyrrolo[2,3-b]pyridin-3-yl)imidazo[1,2-a]pyridin-3-yl)pyrimidin-2-yl)amino)pyridin-3-yl)piperazin-1-yl)ethan-1-one] |  |  |  | 44 nM | 2910 nM |  | 82% |  | 70% | 70% | 85% | 99% | 102% | 
7 | CC(=O)N1CCN(c2ccc(Nc3nccc(-c4cnc5ccc(-c6cc7ccccc7o6)cn45)n3)nc2)CC1 [Cmpd 21, 1-(4-(6-((4-(6-(Benzofuran-2-yl)imidazo[1,2-a]pyridin-3-yl)pyrimidin-2-yl)amino)pyridin-3-yl)piperazin-1-yl)ethan-1-one] | 78% | 102% |  | 17 nM | 4560 nM | 95% | 86% | 97% |  |  |  |  |  | > 5000 nM
8 | CS(=O)(=O)N1CCN(c2ccc(Nc3nccc(-c4cnc5ccc(-c6ccccc6)cn45)n3)nc2)CC1 [Cmpd 54, N-(5-(4-(Methylsulfonyl)piperazin-1-yl)pyridin-2-yl)-4-(6-phenylimidazo[1,2-a]pyridin-3-yl)pyrimidin-2-amine] |  |  |  | 9 nM | 4330 nM |  |  |  |  |  | 52% |  |  | 
9 | CN1CCN(c2ccc(Nc3nccc(-c4cnc5ccc(-c6ccccc6)cn45)n3)nc2)CC1 [Cmpd 46, N-(5-(4-Methylpiperazin-1-yl)pyridin-2-yl)-4-(6-phenylimidazo[1,2-a]pyridin-3-yl)pyrimidin-2-amine] |  |  |  | 7 nM | 2400 nM |  |  |  | 63% | 86% |  |  |  | 
10 | CC(=O)N1CCN(c2ccc(Nc3nccc(-c4cnc5ccc(-c6cc[nH]c6)cn45)n3)nc2)CC1 [Cmpd 23, 1-(4-(6-((4-(6-(1H-Pyrrol-3-yl)imidazo[1,2-a]pyridin-3-yl)pyrimidin-2-yl)amino)pyridin-3-yl)piperazin-1-yl)ethan-1-one] | 50% | 71% |  | 1 nM | 323 nM | 59% | 76% | 55% |  |  |  |  |  | 421 nM
11 | CC(=O)N1CCN(c2ccc(Nc3nccc(-c4cnc5ccc(-c6ccccc6)cn45)n3)nc2)CC1 [Cmpd 14, 1-(4-(6-((4-(6-Phenylimidazo[1,2-a]pyridin-3-yl)pyrimidin-2-yl)amino)pyridin-3-yl)piperazin-1-yl)ethan-1-one] | 69% | 92% |  | 7 nM | 664 nM | 94% | 56% | 78% |  |  |  |  |  | 699 nM
12 | CC(=O)N1CCN(c2ccc(Nc3nccc(-c4cnc5ccc(-c6c[nH]c7ncccc67)cn45)n3)nc2)CC1 [Cmpd 42, 1-(4-(6-((4-(6-(1H-pyrrolo[2,3-b]pyridin-3-yl)imidazo[1,2-a]pyridin-3-yl)pyrimidin-2-yl)amino)pyridin-3-yl)piperazin-1-yl)ethan-1-one] |  |  |  | 5 nM | 1560 nM |  | 46% |  | 52% | 64% |  | 95% | 80% | 607 nM
13 | CC(=O)N1CCN(c2ccc(Nc3nccc(-c4cnc5ccc(-c6cccnc6)cn45)n3)nc2)CC1 [Cmpd 15, 1-(4-(6-((4-(6-(Pyridin-3-yl)imidazo[1,2-a]pyridin-3-yl)pyrimidin-2-yl)amino)pyridin-3-yl)piperazin-1-yl)ethan-1-one] | 77% | 91% |  | 5 nM | 1480 nM | 64% | 88% | 65% |  |  |  |  |  | 680 nM
14 | CC(=O)N1CCN(c2ccc(Nc3nccc(-c4cnc5ccc(-c6ccco6)cn45)n3)nc2)CC1 [Cmpd 12, 1-(4-(6-((4-(6-(Furan-2-yl)imidazo[1,2-a]pyridin-3-yl)pyrimidin-2-yl)amino)pyridin-3-yl)piperazin-1-yl)ethan-1-one] | 93% | 42% | 29% | 9 nM | 400 nM | 70% | 67% | 86% |  |  |  |  |  | 
15 | CC(=O)N1CCN(c2ccc(Nc3nccc(-c4cnc5ccc(-c6cc7ccccc7n6C)cn45)n3)nc2)CC1 [Cmpd 39, 1-(4-(6-((4-(6-(1-Methyl-1H-indol-2-yl)imidazo[1,2-a]pyridin-3-yl)pyrimidin-2-yl)amino)pyridin-3-yl)piperazin-1-yl)ethan-1-one] |  |  |  | 38 nM | > 10000 nM |  | 92% |  | 95% | 85% | 69% | 101% |  | 
16 | CC(=O)N1CCN(c2ccc(Nc3nccc(-c4cnc5ccc(-c6cnc(N)nc6)cn45)n3)nc2)CC1 [Cmpd 18, 1-(4-(6-((4-(6-(2-Aminopyrimidin-5-yl)imidazo[1,2-a]pyridin-3-yl)pyrimidin-2-yl)amino)pyridin-3-yl)piperazin-1-yl)ethan-1-one] | 48% | 100% |  | 23 nM | 8700 nM | 69% | 97% | 99% |  |  |  |  |  | 
17 | CS(=O)(=O)N1CCN(c2ccc(Nc3nccc(-c4cnc5ccccn45)n3)nc2)CC1 [Cmpd 48, 4-(Imidazo[1,2-a]pyridin-3-yl)-N-(5-(4-(methylsulfonyl)piperazin-1-yl)pyridin-2-yl)pyrimidin-2-amine] |  |  |  | 48 nM | 1880 nM |  | 73% |  | 76% | 71% | 43% | 90% |  | 
18 | CC(=O)N1CCN(c2ccc(Nc3ncc(C)c(-c4cnc5ccccn45)n3)nc2)CC1 [Cmpd 44, 1-(4-(6-((4-(Imidazo[1,2-a]pyridin-3-yl)-5-methylpyrimidin-2-yl)amino)pyridin-3-yl)piperazin-1-yl)ethan-1-one] |  |  |  | 387 nM | > 10000 nM |  | 66% |  | 63% | 68% | 93% | 91% |  | 
